Like-named read-outs stand apart in the source and are kept apart here. One block for each compound: values may come before it.
How the values were obtained:
[1] = test system: AKT; assay: AKT In Vivo Target Inhibition (Oral and Parenteral), U87MG tumors in athymic nude mice; details: Mus musculus, U-87 MG, after 2 hours at 12.5 mg/kg, mean of 6 animals per group
Protocol: U87MG human glioblastoma cells (5×106) are subcutaneously implanted into the flank of athymic nude mice in 0.2 mL of matrigel. Two weeks post-implantation, mice are dosed orally or parenterally according to a time course, single dose/single time point, or dose response protocol for the determination of TMED50 (threshold minimum effective dose). Tumors are flash frozen at harvest and blood is collected for the determination of parent compound plasma exposure and the calculation of TMEC50 (threshold minimum effective concentration) in the case of dose response studies. Tumors or tissues are pulverized in liquid N2 and lysed in 400 μL of XY Lysis Buffer (10 μg/mL Leupeptin, 10 μg/mL Trypsin-Chymotrypsin Inhibitor, 10 μg/mL Tosyl phenyl-alanyl chloromethyl ketone, 10 μg/mL Aprotinin, 60 mM Beta-Glycerol Phosphate, 1% Triton X100, 25 mM Tris pH 7.5, 2.5 mM Pyrophosphate, 150 mM NaCl, 2 mM p-tosyl-L-arginine methyl ester, 15 mM para-nitrophenyl phosphate, 5 mM Benzamidine, 1 mM Na Vanadate, 10 mM NaF, 50 μg/mL phenyl-methane sulfonyl fluoride, 1 mM 1,4-Dithiothreitol (DTT), 15 mM EDTA pH 8.0, 5 mM EGTA pH 8.0, 1 μM Microcystin, 1 μM Okadaic Acid, and 1 Roche Complete protease inhibitor mini-tablet per 10 mL) using Lysing Matrix D tubes (MP Biomedicals, Solon, Ohio, cat #6913-500) and a BIO101 Thermo Savant Fast Prep FP12. Lysates are aliquoted and either assayed immediately or stored at −80° C. for later testing. In Vivo Target Inhibition of AKT is measured utilizing Meso Scale Discovery (Gaithersburg, Md.) ELISA technology to assess effects on phosphorylation of the downstream effectors FOXO, PRAS40 and GSK3β(S9). In summary, 20 μg of lysate is added to carbon electrode containing 96-well plates pre-spotted with the appropriate capture antibodies. The protein of interest is probed using a ruthenium labeled detection antibody. Upon the passage of current over the electrode in the presence of read buffer containing the co-reactant TPA, electro-chemiluminescence results in the generation of light which is quantified and recorded using the MSD Sector 6000 instrument. For each study, percent inhibitions are calculated relative to the vehicle control group and ANOVA analysis is performed using the JMP software package for the determination of statistical significance.

[2] = target: T1, hAKT1 Human Recombinant (Homo sapiens, UniProt P31749); assay: AKT1 In Vitro Enzyme Assay (Transcreener Kinase ADP-FP); assay type: biochemical; details: 20 micromolar ATP; read-out: IC50 against AKT1
T1 construct: His tag; host or cells: insect cells
T1 sequence (P31749 whole entry): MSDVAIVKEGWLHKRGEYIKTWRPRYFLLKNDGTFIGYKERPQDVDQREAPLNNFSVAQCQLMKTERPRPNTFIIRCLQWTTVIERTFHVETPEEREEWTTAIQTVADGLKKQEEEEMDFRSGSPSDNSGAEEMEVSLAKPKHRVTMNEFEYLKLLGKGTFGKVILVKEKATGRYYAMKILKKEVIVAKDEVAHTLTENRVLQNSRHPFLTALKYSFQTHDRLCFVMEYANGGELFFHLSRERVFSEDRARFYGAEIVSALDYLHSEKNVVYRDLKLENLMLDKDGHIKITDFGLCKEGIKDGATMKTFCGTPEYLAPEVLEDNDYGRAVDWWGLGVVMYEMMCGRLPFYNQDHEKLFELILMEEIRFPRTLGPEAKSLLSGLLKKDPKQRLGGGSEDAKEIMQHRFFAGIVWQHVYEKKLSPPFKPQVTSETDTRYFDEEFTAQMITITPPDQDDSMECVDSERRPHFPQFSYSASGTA
Protocol: Compound IC50 values against AKT1 target are determined using the AKT1 Transcreener™ Kinase ADP-FP Assay. This assay assesses the activity of AKT1 in the presence of compound inhibitors by measuring the concentration of adenosine diphosphate (ADP) formed in a kinase reaction. The kinase reactions (25 μL reaction volumes) are performed in 96-well half-area black polystyrene plates. Adenosine triphosphate (ATP) is added to start the reactions. Final reaction conditions are 56 millimolar N-2-hydroxyethylpiperazine-N′-2-ethanesulfonic acid (HEPES) pH 7.4, 0.008% TRITON™ X-100, 5 millimolar magnesium chloride, 30 micromolar Crosstide peptide, 20 micromolar ATP, hAKT1 Human Recombinant, V-AKT Murine Thymoma Viral Oncogene Homolog 1, histidine-tagged, expressed in insect cells, 4% dimethylsulfoxide and serial dilutions of compound (diluted 1:3 from 20,000 to 1 nanomolar). […] Quenched reactions are incubated for 4-16 hours, and then read in a Tecan Ultra Evolution plate reader in Fluorescence Polarization mode using polarizing filters of Ex612 nm and Em633 nm wavelength. […] The IC50 value for each compound is derived using percent inhibition data which is calculated using the micromolar ADP reaction data relative to on-plate controls (active enzyme versus 100 millimolar inhibited enzyme controls). […]

[3] = target: T2, ROCK2 Human recombinant enzyme (Homo sapiens, UniProt O75116); assay: ROCK2 In Vitro Enzyme Assay (Transcreener Kinase ADP-FP); assay type: biochemical; details: 10 micromolar ATP; read-out: IC50 against ROCK2
T2 construct: ROCK2 Human recombinant enzyme (residues 11-552, histidine-tagged, expressed in insect cells); His tag; host or cells: insect cells
T2 sequence (O75116 11-552): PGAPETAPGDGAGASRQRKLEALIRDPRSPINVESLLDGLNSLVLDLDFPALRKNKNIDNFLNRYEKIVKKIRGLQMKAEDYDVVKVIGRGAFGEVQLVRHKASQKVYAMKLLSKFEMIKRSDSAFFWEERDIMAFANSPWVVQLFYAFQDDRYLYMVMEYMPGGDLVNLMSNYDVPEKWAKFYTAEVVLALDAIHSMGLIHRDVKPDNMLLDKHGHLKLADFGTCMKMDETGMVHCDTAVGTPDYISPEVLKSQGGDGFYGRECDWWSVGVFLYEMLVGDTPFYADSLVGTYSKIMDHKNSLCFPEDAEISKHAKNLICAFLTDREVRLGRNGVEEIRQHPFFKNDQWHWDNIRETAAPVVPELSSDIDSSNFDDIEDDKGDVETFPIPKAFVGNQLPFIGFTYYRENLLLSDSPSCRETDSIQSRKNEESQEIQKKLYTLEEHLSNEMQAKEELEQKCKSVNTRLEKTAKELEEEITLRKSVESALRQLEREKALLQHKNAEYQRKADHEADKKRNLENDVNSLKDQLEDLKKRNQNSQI
Protocol: Compound IC50 values against ROCK2 kinase are determined using the ROCK2 Transcreener™ Kinase ADP-FP Assay. This assay assesses the activity of ROCK2 in the presence of compound inhibitors by measuring the concentration of ADP formed in a kinase reaction. The kinase reactions (25 μL reaction volumes) are performed in 96-well half-area black polystyrene plates. Enzyme is added to start the reactions. Final reaction conditions are 20 millimolar 3-(N-Morpholino)-propanesulfonic acid pH 7.4, 4 millimolar beta-glycero-phosphate, 0.01% TRITON™ X-100, 5 millimolar magnesium chloride, 25 micromolar peptide substrate (sequence RFARKGSLRQKNV (SEQ ID NO:1)), 10 micromolar ATP, ROCK2 Human recombinant enzyme (residues 11-552, histidine-tagged, expressed in insect cells), 4% dimethysulfoxide and serial dilutions of compound (diluted 1:3 from 20,000 to 1 nanomolar). […] Quenched reactions are incubated for 4-16 hours, and then read in a Tecan Ultra Evolution plate reader in Fluorescence Polarization mode using polarizing filters of Ex612 nm and Em633 nm wavelength. […] The IC50 value for each compound is derived using percent inhibition data which is calculated using the micromolar ADP reaction data relative to on-plate controls (active enzyme versus 100 millimolar EDTA-inhibited enzyme controls). […]

[4] = test system: phosphorylated GSK3β (S9) in U87MG cells; assay: AlphaScreen SureFire detection of phosphorylated GSK3β (S9) in U87MG cells; assay type: cell-based; details: Homo sapiens, U-87 MG, 1 hour, read-out: IC50, formation of phosphorylated GSK3β (S9)
Protocol: The effect of compounds on the formation of endogenous phosphorylated GSK3β serine 9 (pGSK3β) are measured using the AlphaScreen SureFire® for pGSK3β(TGRGBS10K). This is a homogeneous assay format using immuno-sandwich capture of the phosphorylated analyte followed by detection using antibody-coated Alphascreen beads to generate an amplified signal.
U87MG cells are maintained in U87MG growth medium consisting of DMEM supplemented with 10% Fetal bovine serum, 1% Nonessential amino acids and 1% sodium pyruvate. For the assay, cells are harvested by standard procedures and then counted using Vi-Cell. Cells (50,000/well) are plated in 100 μL of U87MG growth medium into Costar #3596 96 well plates. Plates are incubated overnight at 37° C., 5% CO2.
On the day of the assay, cells are treated with 20 μL/well compound diluted in media containing 6% dimethylsulfoxide. […] The plate is sealed with foil, incubated at room temperature for 4 hours with gentle shaking and then read on Perkin Elmer EnVision equipped with a TurboModule using standard AlphaScreen® settings (Ex680 nm and Em520-620 nm). The percent inhibition determined from controls on each plate and ten-point compound concentration data are then fit to a four-parameter logistic equation using ACTIVITYBASE 4.0 (Assay Guidance Manual Version 5.0, 2008, Eli Lilly and Company and NIH Chemical Genomics Center).

[5] = test system: MDA-MB-231; assay: Cell proliferation combination study (CellTiter-Glo); assay type: cell-based; details: with Paclitaxel
Protocol: (§1) The proliferation assay uses the CellTiter-Glo Luminescent Cell Viability Assay System (commercially available from Promega) to determine the cell number of viable cells in culture based on quantitation of the ATP present, which signals the presence of metabolically active cells.
(§2) The cells are plated in 96-well plate at 2000 cells/well in volume of 50 μL medium (DMEM, 10% FBS, 25 mM HEPES, 1.0 mM Sodium Pyruvate, and 0.1 mM Non Essential Amino Acids) except column 1 with medium only as blank control. The plates are incubated overnight at 37° C. and 5% CO2. On the next day, compound stocks are prepared at 40 mM in DMSO (500×) and serially diluted in DMSO in a 96-well round bottom polypropylene plate. Compounds are assayed at 10 concentrations in duplicate, 4 compounds per plate.
(§3) 4 μL of the serial DMSO dilutions are transferred to a 96 deep-well plate and 1 mL complete culture medium is added to create 2× stock for dosing. 50 μL of each 2× dosing stock is gently transferred to the corresponding well of the cell plate resulting in a 0.2% DMSO concentration and a 100 μL final volume. […] medium are added to the Control columns (Column 12) and background columns (Column 1). Cells are incubated with compound for at 37° C., 5% CO2 for 72 hr.
(§4) After incubation, 100 μL of the pre-prepared CellTiter-Glo reagent (Promega, Cat: G7571) is added in each well and then the cells are homogenized by mixing on an orbital shaker for 2 min and incubated at RT for 10 minutes to allow luminescent signal stabilization Luminescent raw data is recorded on Wallac Victor V plate reader and the IC50 value for each compound is generated using percent inhibition data. A four-parameter logistic curve is fit to each dose response.
(§5) Combination studies use the fixed ratio method, where the other therapeutic agent and the compound of the present invention are present in fixed ratios of concentrations corresponding to the IC50 equivalents of single agents. The read out for the combination studies is cell proliferation in respective cell lines using Cell Titer Glo reagents. Controls are processed similarly but without the compounds. Analysis of the data is done according to the method described in Zhao et. Al. (Clinical Cancer Research 10, 7994-8004, Dec. 1, 2004) utilizing an internally developed web based tool. A combination index is calculated for each cell proliferation inhibition activity level according to the equation below. Combination Index at activity level x=[Concentration of other therapeutic agent in the combination at the activity level x/ICx of the other therapeutic agent]+[Concentration of the compound of the present invention in the combination at the activity level x/ICx of the compound of the present invention]

[6] = test system: MCF-7; assay: as above; assay type: cell-based; details: with Paclitaxel
Protocol: as §1, §2, §3, §4, §5

[7] = test system: H1155; assay: as above; assay type: cell-based
Protocol: as §1, §2, §3, §4, §5

Structure (SMILES): CCc1cn(CCN2CCCC2)c(C2CCN(c3ncnc4c3[C@H](C(F)(F)F)CC(=O)N4)CC2)n1 [Example 26, (R)-4-(4-(4-ethyl-1-(2-(pyrrolidin-1-yl)ethyl)-1H-imidazol-2-yl)piperidin-1-yl)-5-(trifluoromethyl)-5,6-dihydropyrido[2,3-d]pyrimidin-7(8H)-one]
- inhibition at 12.5 mg/kg ([1]; read-out: Mean % Inhibition FOXO3a (T32)): 36.8%
- inhibition at 12.5 mg/kg ([1]; read-out: Mean % Inhibition pAKT (S473)): 21.7%
- inhibition at 12.5 mg/kg ([1]; read-out: Mean % Inhibition pGSK3β (S9)): 34.4%
- inhibition at 12.5 mg/kg ([1]; read-out: Mean % Inhibition pPRAS40 (T246)): 8.1%

- IC50 [2]: 17 nM
- IC50 [3]: > 20000 nM
- IC50 [4]: 1500 nM
Structure (SMILES): C[C@@H]1CC(=O)Nc2ncnc(N3CCC(c4nc(Cl)cn4CCN4CCCC4)CC3)c21 [Example 41, (R)-4-(4-(4-chloro-1-(2-(pyrrolidin-1-yl)ethyl)-1H-imidazol-2-yl)piperidin-1-yl)-5-methyl-5,6-dihydropyrido[2,3-d]pyrimidin-7(8H)-one]

Structure (SMILES): C[C@@H]1CC(=O)Nc2ncnc(N3CCC(c4nc(C5CCOCC5)cn4CCN4CCCC4)CC3)c21 [Example 73, (R)-5-Methyl-4-(4-(1-(2-(pyrrolidin-1-yl)ethyl)-4-(tetrahydro-2H-pyran-4-yl)-1H-imidazol-2-yl)piperidin-1-yl)-5,6-dihydropyrido[2,3-d]pyrimidin-7(8H)-one]
- Combination Index at 50% Inhibition [5]: 1.25
- Combination Index at 50% Inhibition [6]: 0.56
- Combination Index at 50% Inhibition ([7]; with Cisplatin): 0.82
- Combination Index at 50% Inhibition ([7]; with Gemcitabine): 0.87
- Combination Index at 50% Inhibition ([7]; with Pemetrexed): 0.29

From patent US8436002B2, “AKT inhibitors” (Eli Lilly and Company, priority 2009, dated 2013)
